# Data published in ChEMBL document CHEMBL1201862, “PubChem BioAssay data set” (2004).
#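 The compound was tested at five concentrations on cells cultured in 96-well plates, with a 48-hour exposure period. GI50 is the concentration that inhibits growth by half.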 Active and inactive are the calls of the source. Rule as the data show it: active = GI50 up to about 1.1 µM and inactive = higher.
# Tests used:
# Assay in all cases: NCI tumour cell line growth inhibition, 48 h
# [1] = test system: M19-MEL
# [2] = test system: XF498
# [3] = test system: LXFL 529
# [4] = test system: KM-20L2
# [5] = test system: DMS-273
# [6] = test system: RXF 631
# [7] = test system: NCI/ADR-RES
# [8] = test system: MDA-N
# [9] = test system: 786-0
SMILES,GI50 [1],GI50 [2],GI50 [3],GI50 [4],GI50 [5],GI50 [6],GI50 [7],GI50 [8],GI50 [9]
CCOC(=O)NC(=O)c1cn(CCNCCO)c(=O)[nH]c1=O,> 100 µM (inactive),> 100 µM (inactive),> 100 µM (inactive),–,–,–,–,–,–
NC(S)=Nc1cc(Cl)ccc1Cl,> 100 µM (inactive),94.6 µM (inactive),> 100 µM (inactive),> 100 µM (inactive),> 100 µM (inactive),> 100 µM (inactive),–,–,–
c1nc2nc[nH]c(SSc3[nH]cnc4ncnc3-4)c-2n1,–,–,–,–,–,–,0.217 µM (active),–,–
Cc1ccc(C(=O)C2CC3(CCC2(O)c2ccc(C)cc2)CC(=O)Nc2ccccc2C3=O)cc1 (stereo unspecified),–,–,–,–,–,–,> 100 µM (inactive),> 100 µM (inactive),–
CC1CN=C(Nc2cccc(C(F)(F)F)c2)S1 (stereo unspecified),–,–,–,–,–,–,–,40.6 µM (inactive),–
CC(=O)Nc1ccc(C(=O)NN2C(=O)C(Cl)C2/C=C/c2ccccc2)cc1 (stereo unspecified),> 100 µM (inactive),–,> 100 µM (inactive),–,–,–,–,–,–
COc1ccc(OC)c(C(=O)/C=C/c2cc(O)c(O)cc2F)c1,–,–,–,–,–,–,0.412 µM (active),0.181 µM (active),2.28 µM (inactive)
CC(=O)/C=C/c1c[nH]c(=O)[nH]c1=O,390 µM (inactive),38.4 µM (inactive),–,213 µM (inactive),89.1 µM (inactive),–,151 µM (inactive),–,–
Nc1nc(=O)n(CC(O)CO)s1 (stereo unspecified),> 100 µM (inactive),–,> 100 µM (inactive),> 100 µM (inactive),> 100 µM (inactive),> 100 µM (inactive),–,–,–
CC(C)(C)[Si](C)(C)OCCOCn1cc(F)c(=O)[nH]c1=O,–,–,–,–,–,–,> 100 µM (inactive),> 100 µM (inactive),> 100 µM (inactive)
CC(C)(C)[Si](OC1CC(n2cnc3c(N)ncnc32)OC1CO)(c1ccccc1)c1ccccc1 (stereo unspecified),19.7 µM (inactive),10.4 µM (inactive),34.6 µM (inactive),15.4 µM (inactive),18.7 µM (inactive),–,–,–,–
COc1ccc(-c2cc(-c3ccccc3)c(C#N)c(=O)n2C2OC(CO)C(O)C(O)C2O)cc1 (stereo unspecified),> 100 µM (inactive),–,> 100 µM (inactive),> 100 µM (inactive),> 100 µM (inactive),> 100 µM (inactive),–,–,> 100 µM (inactive)
NC(=O)NN=C(CS)CS,17.5 µM (inactive),< 0.01 µM (active),–,19.8 µM (inactive),20 µM (inactive),–,25.6 µM (inactive),–,–
COc1ccc(N2C(=O)CSC2c2c[nH]c3ccccc23)cc1 (stereo unspecified),–,–,–,–,–,–,–,35.2 µM (inactive),–
S=C(N/N=C(/c1ccccc1)c1ccccn1)Nc1cccc(Cl)c1,–,–,–,–,–,–,0.0432 µM (active),0.557 µM (active),–
Cc1[nH]c(=O)nc(S)c1C(=O)NC1C2CCCCC2NC2CCCCC21 (stereo unspecified),–,–,–,–,–,–,17.7 µM (inactive),11.5 µM (inactive),–
O=C1CC(=O)N(c2ccccc2)N1/C(=C/c1ccccc1)c1ccccc1,–,–,–,–,–,–,25.5 µM (inactive),13.6 µM (inactive),–
CCOC(=O)[C@H]1Nc2c(cccc2[N+](=O)[O-])[C@H]2OCC[C@@H]12,> 100 µM (inactive),> 100 µM (inactive),> 100 µM (inactive),> 100 µM (inactive),> 100 µM (inactive),> 100 µM (inactive),–,–,–
CN1C(=O)[C@@H]2[C@@H]3c4ccccc4N[C@@H]3c3[nH]c4ccccc4c3[C@@H]2C1=O,–,–,–,–,–,–,22.8 µM (inactive),31.8 µM (inactive),–
Cn1c(=O)[nH]c2c(c1=O)C(=O)CN2,> 100 µM (inactive),> 100 µM (inactive),> 100 µM (inactive),> 100 µM (inactive),> 100 µM (inactive),–,–,–,–
CCSc1nc(N)c2c(-c3ccccc3)c3c(nc2n1)CCC3,–,–,–,–,–,–,> 100 µM (inactive),> 100 µM (inactive),–
N=C(N)NS(=O)(=O)c1ccc(Nc2c3ccccc3nc3c(C(=O)N4CCN(CCO)CC4)ccc(Cl)c23)cc1,> 100 µM (inactive),> 100 µM (inactive),–,> 100 µM (inactive),–,–,–,–,–
CC(=O)NC(Cc1ccsc1)C(=O)O (stereo unspecified),> 100 µM (inactive),> 35.4 µM (inactive),–,> 100 µM (inactive),> 100 µM (inactive),–,> 100 µM (inactive),–,–
CC(C)(Br)C(Br)CCC(C)(Br)C(Br)CO (stereo unspecified),–,–,–,–,–,–,> 10 µM (inactive),> 10 µM (inactive),> 10 µM (inactive)
COc1ccc(-c2c(C#N)c(N)nc3c2CCS(=O)(=O)c2ccccc2-3)cc1,–,–,–,–,–,–,> 100 µM (inactive),–,68.2 µM (inactive)
Cc1cnc(SCCN2CCN(C)CC2)nc1-c1cc2ccccc2s1,–,–,13.8 µM (inactive),–,4.93 µM (inactive),–,–,–,12 µM (inactive)
COc1ccccc1NC(=O)/C(Cc1nc2ccc([N+](=O)[O-])cc2nc1O)=N\NC(=O)C[N+](C)(C)C,–,–,–,–,–,–,38.6 µM (inactive),14.9 µM (inactive),68.7 µM (inactive)
Cc1cccc(C)c1NC(=S)N/C=C(\C#N)C(N)=O,–,–,–,–,–,–,> 100 µM (inactive),> 100 µM (inactive),> 100 µM (inactive)
O1C2C1C1OC1C1OC1C1OC21 (stereo unspecified),–,–,–,–,–,–,> 100 µM (inactive),> 100 µM (inactive),–
CCN(CC)c1ccc2cc(C(=O)Nc3ccc4[nH]c(C(=O)N5C[C@@H](CCl)c6c5cc(OC(=O)Nc5ccccc5)c5[nH]cc(C)c65)cc4c3)oc2c1 [CARZELESIN],0.000316 µM (active),–,–,944 µM (inactive),9.33e-05 µM (active),–,–,–,–
